Measurements from PubChem BioAssay AID179 (DTP/NCI, 2004).
Activity calls are given as the source filed them.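 How the source made its calls: active means compounds giving half or more protection of infected cells from virus-caused growth loss, again on retest; inactive means the rest.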

System: CEM cells HIV-1 protection, formazan growth assay
Test: NCI AIDS Antiviral Assay
Conditions: for IC50: measured here: growth of uninfected CEM cells
In short: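 Protection of CEM cells against HIV-1 measured as cell growth via soluble formazan read-out, with five concentrations tested on both infected and uninfected cells; failure to protect may reflect toxicity.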

Row | SMILES | EC50 [µM] | IC50 [µM] | outcome
1 | C=C[C@@H](C)[C@@H](O[Si](C)(C)C(C)(C)C)c1c(O)c2c(c3c(CCC)cc(=O)oc13)OC(C)(C)C=C2 | > 200 | 105 | –
2 | O=C1C2CC[C@@H]3C(=O)C(Cl)(Cl)[C@@H]3CCC2C1(Cl)Cl (stereo partly specified) | > 200 | > 200 | –
3 | COc1c(O)c2c(=O)cc3c4c5c(cc(=O)c6c(O)c(OC)c(CC(C)O)c(c(c1CC(C)O)c24)c65)OCO3 (stereo unspecified) | > 24 | 0.832 | –
4 | O=S(=O)(Nc1nnc2c3ccccc3cnn12)c1ccc(F)cc1S | 110 | 468 | –
5 | CC(CO)S(=O)(=O)O (stereo unspecified) | > 200 | > 200 | –
6 | COC(=O)C(=O)C(C(=O)C(=O)Nc1ccc(Cl)cc1Cl)c1nc2ccc(Cl)cc2[nH]c1=O (stereo unspecified) | > 38 | > 38 | –
7 | O=c1c(O)c(-c2cc(O)c(O)c(O)c2)oc2cc(O)cc(O)c12 | > 282 | 13.8 | –
8 | COc1cccc(C(=O)N2CCc3ccccc32)c1OC | – | – | inactive
9 | CCOC(=O)C1CCCc2sc(N)c(C#N)c21 (stereo unspecified) | > 200 | > 200 | –
10 | O=C(O)[C@@H]1CSC(c2ccc(C(F)(F)F)cc2)N1 (stereo partly specified) | > 200 | > 200 | –
11 | CC1=CC(C)(C)N=C2SC(COc3ccccc3)=NN12 | > 200 | 34.7 | –
12 | NCCCCNC(c1ccccc1)C(O)c1ccccc1 (stereo unspecified) | – | – | inactive
13 | CCOC(=O)C1C(c2ccc(OC)cc2)C(C(=O)OCC)C(O)(C(F)(F)F)OC1(O)C(F)(F)F (stereo unspecified) | > 257 | 151 | –
14 | NC(CC(O)(c1ccccc1)c1ccccc1)c1ccccc1S (stereo unspecified) | > 200 | – | –
15 | N#Cc1nc(-c2cccc(-c3nc(C#N)c(N)o3)n2)oc1N | – | – | inactive
16 | COc1c(OCc2ccccc2)c(OCc2ccccc2)cc(CO)c1-c1c(CO)cc(OCc2ccccc2)c(OCc2ccccc2)c1OC | > 2.88 | > 2.88 | –
17 | CCOC(=O)c1ccc(CS(=O)(=O)c2ccc(Cl)cc2)c([N+](=O)[O-])c1 | > 49 | > 49 | –
18 | CCC(CO)Nc1nc2c(c(=O)n(C)c(=O)n2C)n1CCO (stereo unspecified) | – | – | inactive
19 | Cn1cc(NC(=O)c2cc(NC(=O)c3cc(NC(=O)/C=C/C(=O)O)cn3C)cn2C)cc1C(=O)NCCC(=N)N | > 100 | 89.1 | –
20 | CN1c2ccccc2SC2C(c3ccccc3)=NOC21 (stereo unspecified) | > 200 | 45.7 | –
21 | O=C(O)C1(Cl)C2(Cl)C(Cl)=CC3(Cl)C(Cl)(C(=O)O)C2(Cl)C31Cl (stereo unspecified) | > 200 | > 200 | –
22 | O=C(O/N=c1/ccc(=O)/c(=N\OC(=O)c2ccccc2)c1=O)c1ccccc1 | > 200 | 47.9 | –

Row | SMILES | EC50 [µM] | IC50 [µM] | outcome
23 | C(=Nc1cccnc1)c1ccc2ccccc2n1 | > 81.3 | 44.7 | –
24 | Nc1cc(CO)cc(Nc2c3ccccc3nc3ccccc23)c1 | > 2 | 0.347 | –
25 | Cc1cc(C2(c3ccc(O)c(C)c3)OS(=O)(=O)c3ccccc32)ccc1O | – | – | inactive
26 | COC(=O)[C@H]1COC(=O)N1 | > 200 | > 200 | –
27 | COc1ccc(Cl)c2c1[nH]c1nc3nc4cc(Cl)ccc4n3nc12 | > 100 | > 100 | –
28 | COc1c2c(c(Cl)c3ccc(=O)oc13)CCO2 | > 70.8 | > 70.8 | –
29 | C=CCCCCCCCCC(=O)NCCN1CCOCC1 | > 200 | > 200 | –
30 | CN(C(=O)C12C3C4C1C1C2C3C41C(N)=O)C(C)(C)C (stereo unspecified) | > 52.5 | > 52.5 | –
31 | COC1=NCN=C2SC=C(N)N=C12 | > 1070 | 562 | –
32 | O=[N+]([O-])c1cc(NN=C(c2ccccc2)c2ccccc2)cc([N+](=O)[O-])c1 | > 3.98 | > 3.98 | –
33 | CC1=CO[C@@H]2O[C@@]3(C)CC[C@H]4[C@H](C)CC[C@@H]1[C@@]24O3 | > 200 | > 200 | –
34 | CC12OC(=O)C(C(N)=O)=C1C=C(c1ccccc1)CC2c1ccccc1 (stereo unspecified) | > 200 | 33.1 | –
35 | Cc1ccccc1NC(=S)N=Nc1c(O)[nH]c2ccccc12 | > 200 | > 200 | –
36 | Cc1cccc2c1C(=O)[C@](C)([C@]1(C)Nc3cccc(C)c3C1=O)N2 | > 200 | 17.4 | –
37 | BrCc1ccc(CBr)c2c1-c1c(CBr)ccc3ccc(CBr)c-2c13 | > 200 | 22.9 | –
38 | COc1cc(C2C(Cl)C(=O)N2NC(=O)Cc2ccccc2)ccc1O (stereo unspecified) | > 72.4 | > 72.4 | –
39 | O=C1C(c2ccccc2)=C(c2ccccc2)C(c2ccc(-c3ccc(C4=C(c5ccccc5)C(=O)C(c5ccccc5)=C4c4ccccc4)cc3)cc2)=C1c1ccccc1 | > 3.55 | > 3.55 | –
40 | COc1cc(OC)c(OC)cc1/C=C\c1nccc2ccccc12 | > 30.9 | 22.4 | –
41 | CC(C)(C)[Si](C)(C)OCC1OC(n2ccc(=O)[nH]c2=O)C(O[Si](C)(C)C(C)(C)C)/C1=N/O (stereo unspecified) | > 200 | 4.07 | –
42 | CNC(=S)SSC(=S)NCCNC(=S)SSC(=S)NC | – | – | inactive
43 | Cc1cc2c(cc1C)C(=O)C1(C2)Cc2c(C)ccc(C)c2C1=O (stereo unspecified) | > 100 | > 100 | –
44 | NC(=O)c1ncn2c(=O)n(CCCl)nnc12 | > 1020 | 24.5 | –

Row | SMILES | EC50 [µM] | IC50 [µM] | outcome
45 | Cn1c(CC(O)(C(F)(F)F)C(F)(F)F)c(C(O)(C(F)(F)F)C(F)(F)F)c2ccccc21 | > 200 | 3.39 | –
46 | COc1c2c(cc3c1C(=O)Cc1ccc4c(c1CN(C)CC3)OCO4)OCO2 | > 35.5 | > 35.5 | –
47 | CC1(C=O)C(=O)CCC2(C)C3CC(=O)OC3CCC12 (stereo unspecified) | – | – | inactive
48 | CSc1nc(C)cc(N(C)c2ccccc2)n1 | > 200 | 32.4 | –
49 | CN1C(=O)/C(=C2\SC(=O)N(Cc3nc4ccccc4[nH]3)C2=O)c2cc(Br)ccc21 | > 200 | 12.9 | –
50 | CC(=O)C1Cn2c(nc3ccccc32)C[Se]1 (stereo unspecified) | – | – | inactive
51 | O=C1/C(=C(/Br)I)c2ccccc2-c2ccccc21 | > 200 | 8.32 | –
52 | O=[N+]([O-])c1cc(C(F)(F)F)ccc1S(=O)(=O)N[C@@H]1CCCC[C@H]1NS(=O)(=O)c1ccc(C(F)(F)F)cc1[N+](=O)[O-] | > 200 | 3.98 | –
53 | C=CCC1C(=O)CC2(C)CC(=O)C(CC=C)C12C (stereo unspecified) | – | – | inactive
54 | O=C1NC(N2CCOCC2)=N/C1=C\c1cccs1 | > 200 | > 200 | –
55 | CC(C)c1ccccc1NC(=O)C(=O)Cc1nc2ccccc2s1 | – | – | inactive
56 | C[C@]12CCC3[C@@H](CCC4(C=N)CC(=O)CC[C@]34C)C1CC[C@@H]2O (stereo partly specified) | – | – | inactive
57 | NC(=S)N/N=C\C12CC3CC(CC(C3)C1)C2 | – | – | inactive
58 | COc1ccc(C)cc1-c1ccc(-c2cc(C)ccc2OC)o1 | > 72.4 | 58.9 | –
59 | CC(C)(CO)CNc1nc(N)nc(Cl)c1/C=N/O | > 200 | 5.5 | –
60 | COc1ccc(OC)c(N(CN2C(=O)CCC2C(=O)O)C(C)=O)c1 (stereo unspecified) | > 200 | > 200 | –
61 | O=C(CC(=O)C1CCOC1=O)C(=O)Nc1cccc(Cl)c1 (stereo unspecified) | – | – | inactive
62 | O=C1OC(c2cccc3ccc(Br)cc23)c2ccccc21 (stereo unspecified) | 27.5 | 52.5 | –
63 | O=C1c2ccccc2CCC1C(O)(C(F)(F)F)C(F)(F)F (stereo unspecified) | > 200 | > 200 | –
64 | O=S1(=O)CC#CC[C@@H](CO)[C@@H](CO)CC#CC1 | – | – | inactive
65 | COc1ccccc1C1(c2c(OC(C)C)c(=O)c2=O)SCCCS1 | > 200 | 138 | –
66 | CN(C)CCCNC(=O)c1cc(NC(=O)c2cc(NC(=O)[C@@H]3C[C@H]3C(=O)Nc3cc(C(=O)Nc4cc(C(=O)NCCCN(C)C)n(C)c4)n(C)c3)cn2C)cn1C | – | – | inactive

Row | SMILES | EC50 [µM] | IC50 [µM] | outcome
67 | Clc1ccc(NC2=NCCN=C(Nc3ccc(Cl)c(Cl)c3)SS2)cc1Cl | > 11.2 | > 11.2 | –
68 | CC(=NNC(=S)Nc1ccccc1C)c1cccc(C(C)=NNC(=S)Nc2ccccc2C)n1 | > 200 | 110 | –
69 | COc1ccc(OC)c2c(Nc3ccc(S(=O)(=O)O)c4cc(S(=O)(=O)O)cc(S(=O)(=O)O)c34)cc(C)nc12 | > 200 | > 200 | –
70 | N#Cc1c(Cl)c2ccccc2n2c1nc1ccccc12 | > 151 | 8.32 | –
71 | CCN(CC)C(=S)SCC(=O)Nc1nc2c(s1)CCCC2 | > 20.9 | > 20.9 | –
72 | CCOP(=O)(OCC)OC1c2[nH]cc(C(=O)OCc3ccccc3)c2-c2cc(C(=O)OC)[nH]c2C1OC (stereo unspecified) | > 200 | 16.6 | –
73 | CCc1cccc(C(C)CC)c1NC(=O)C(=O)Cc1nc2ccccc2o1 (stereo unspecified) | > 347 | > 347 | –
74 | NC(F)(Cc1ccccc1)C(=O)O (stereo unspecified) | > 200 | > 200 | –
75 | N#C/C(=C\c1ccc(O)c(O)c1)C(N)=O | > 25.1 | 10.5 | –
76 | COc1ccc2c(c1)C(=O)C1CC(=O)CCC21 (stereo unspecified) | > 288 | > 288 | –
77 | N#Cc1ccccc1NC(=O)C(=O)c1c(O)c2ccccc2oc1=O | > 741 | > 741 | –
78 | O=C(CC(=O)N1N=C(N(c2ccccc2)c2ccccc2)CC1c1ccccc1)Nc1ccc(Cl)cc1 (stereo unspecified) | – | – | inactive
79 | CC12CC3CC(C1)CC(N=[N+]=[N-])(C3)C2 | > 70.8 | > 70.8 | –
80 | Cc1cccc(Cl)c1NC=O | – | – | inactive
81 | CC12CCC(OC3OC(CO)C(OC4OC(CO)C(O)C(O)C4O)C(O)C3O)CC1CCC1C2CCC2(C)C(C3=CC(=O)OC3)CCC12O (stereo unspecified) | > 20 | 0.309 | –
82 | COc1cccc(C2SC(N)=Nc3c2c(C)nn3C(=O)Cc2ccccc2)c1 (stereo unspecified) | 79.4 | 129 | –
83 | Cc1cccc2c(N)c3cccc(C(=O)NCC[N+]4(Cc5ccc([N+](=O)[O-])cc5)CCOCC4)c3nc12 | > 200 | 30.2 | –
84 | CCCCCCCCN1CCCN(/N=C/c2c3c(O)c4c(O)c(C)c5c(c4c2O)C(=O)C(C)(O/C=C/C(OC)C(C)C(OC(C)=O)C(C)C(O)C(C)C(O)C(C)/C=C/C=C(C)C(=O)N3)O5)CC1 (stereo unspecified) | > 200 | 7.24 | –
85 | CCCCCCCC/C=C\CCCCCCC(F)C(=O)O (stereo unspecified) | 33.1 | > 200 | –
86 | Clc1cc(Cl)c2n[se]nc2c1 | – | – | inactive
87 | COc1cc(/C=C2\CCC(C)C3C2=NN(C(C)=O)C3c2cc(OC)c(OC)c(OC)c2)cc(OC)c1OC (stereo unspecified) | > 100 | > 100 | –
88 | BrC(Br)([P+](c1ccccc1)(c1ccccc1)c1ccccc1)[P+](c1ccccc1)(c1ccccc1)c1ccccc1 | – | – | inactive
